According to patent US20250170132A1, “SALTS AND POLYMORPHIC FORMS OF MENIN INHIBITORS AND PHARMACEUTICAL COMPOSITIONS THEREOF” (Syndax Pharmaceuticals, Inc., priority 2023, published 2025):

Legend:
Assay type in all cases: physicochemical
[1] = Polymorph screen: solid vapor diffusion
Experimental: (§1) X-ray powder diffraction (XRPD) • Instrument: Panalytical Empyrean • Parameters: X-Ray tube Cu (Kα radiation); Power: 45 kV×40 mA • Scanning range: 2 to 40 2θ (degree) • Step size: 0.01 degree • Scanning speed: 6.33 degree (20) per minute Thermogravimetric analysis (TGA) • Instrument: TA Instruments Discovery TGA • Parameters: Ramp 10° C. per minute, 25 to 300° C., 50 mL/min N2 sweep Differential scanning calorimetry (DSC) • Instrument: TA Instruments Discovery DSC • Parameters: Ramp 10° C. per minute, up to 300° C. Polarized light microscopy (PLM) • Instrument: Nikon Eclipse Ci POL • Camera: Nikon DS-Fi3 • Software: Nikon NIS Elements
Solid vapor diffusion—About 30 mg API was transferred into 4 mL vials which are placed in 20 mL glass vials containing different solvents. The solids were tested by XRPD after 7-10 days (Table 31).

[2] = Polymorph screen: slurry at RT
Experimental: as §1
Slurry at RT—About 40 mg API was suspended and stirred in different solvents in 4 mL vials at RT. The solids in the slurry were characterized by XRPD after 5-7 days (Table 33).

[3] = Aqueous solubility of Compound A salts
Experimental: Solubility of Compound A citrate was determined in 3 different types of matrices: unbuffered water, citrate-buffered solutions from pH 3 to 6, and formulations consisting of citrate, advantame, methylparaben sodium, potassium sorbate, and sodium chloride at pH ranging from 3 to 6. Solubility in unbuffered water at ambient temperature was 38.5 mg/mL.
The target pH was reassessed when the F3 formulation was developed. Compound A citrate solubility studies were performed initially in simple buffered solutions to assess solubility trends as a function of pH. […] The target concentration of Compound A was therefore changed to 40 mg/mL as a compromise between drug substance and preservatives dissolution rate and stability.

[4] = Polymorph screen: polymer-induced crystallization
Experimental: as §1
The obtained solids were characterized by XRPD after 7-10 days (Table 36).

[5] = Polymorph screen: temperature cycling; details: temperature cycling 50→40→30→20→5 °C, total 2 cycles, each step 4 h, isolated at RT, XRPD
Experimental: as §1
The obtained solids were characterized by XRPD (Table 37).

[6] = Polymorph screen: sonication induced crystallization
Experimental: as §1
Sonication induced crystallization—About 40 mg API was suspended and sonicated in different solvents in 4 mL vials at RT. The solids in the slurry were characterized by XRPD after 1-day (Table 38).

[7] = Polymorph screen: anti-solvent addition
Experimental: as §1
Experiments using 10 different techniques including using techniques such as anti-solvent addition, solid vapor diffusion, liquid vapor diffusion, slurry (at RT and 50° C.), slow evaporation, polymer induced crystallization, thermal cycling, sonication, and wet grinding.
Obtained solids were tested by XRPD (Table 30).

[8] = Polymorph screen: slow evaporation; details: Diethylamine, 50° C.
Experimental: as §1
The vials were covered with paraffin film with 3-5 holes and placed at specified temperature for evaporation. The obtained solids were characterized by XRPD (Table 35).

[9] = Polymorph screen: solvent drop grinding; details: XRPD
Experimental: as §1
Solvent drop grinding—About 30 mg API was ground with different solvents. The obtained solids were characterized by XRPD (Table 39).

[10] = Solution stability studies at accelerated conditions, counterion adduct (Impurity A); details: solution stability at accelerated conditions
From the text: Compound A monocitrate monohydrate has at least two advantageously and unexpected characteristics. […] Second, in the manufacturing process, Compound A fumarate requires a separate slurrying step which results in a solvate with an organic solvent. Compound A monocitrate monohydrate salt is isolated directly from ethanol:water, no slurrying step is required. […] Additionally, the Compound A monocitrate forms a monohydrate instead of a solvate with one or more organic molecules.
Although this degradation pathway is more accelerated in solution it was also observed in the solid API. Formation of Impurity A was the reason why Compound A sesquifumarate API and drug product were stored at refrigerated temperatures.

[11] = Polymorph screen: liquid vapor diffusion
Experimental: as §1
The obtained solids were characterized by XRPD after 7-10 days (Table 32).

CCN(C(=O)c1cc(F)ccc1Oc1cncnc1N1CC2(CCN(C[C@H]3CC[C@H](NS(=O)(=O)CC)CC3)CC2)C1)C(C)C [Compound A monocitrate monohydrate]
Crystal Form ([1]; solid vapor diffusion, 1,4-dioxane, RT): Form A | Crystal Form ([1]; solid vapor diffusion, 2-Methyl THF, RT): Form A | Crystal Form ([1]; solid vapor diffusion, CHCl3, RT): Form A | Crystal Form ([1]; solid vapor diffusion, CPME, 40° C.): Form A | Crystal Form ([1]; solid vapor diffusion, DCM, RT): Form A | Crystal Form ([1]; solid vapor diffusion, Dimethoxyethane, 40° C.): Form A | Crystal Form ([1]; solid vapor diffusion, IPAc, RT): Form A | Crystal Form ([1]; solid vapor diffusion, MEK, RT): Form A | Crystal Form ([1]; solid vapor diffusion, MTBE, RT): Form A | Crystal Form ([1]; solid vapor diffusion, THF, RT): Form A | Crystal Form ([1]; solid vapor diffusion, Toluene, 40° C.): Form A | Crystal Form ([2]; Acetone): Form A | Crystal Form ([2]; Benzene): Form A | Crystal Form ([2]; CHCl3): Form A | Crystal Form ([2]; CPME): Form A | Crystal Form ([2]; DMA:Benzene 1:9): Form A | Crystal Form ([2]; DMA:CHCl3 1:9): Form A | Crystal Form ([2]; DMA:EtOH 1:9): Form A | Crystal Form ([2]; DMF:EtOAc 1:9): Form A | Crystal Form ([2]; DMSO (SL→Gel)): Amorphous | Crystal Form ([2]; DMSO:IPAc 1:9): Form A | Crystal Form ([2]; Diethylamine:EtOH 3:7): FB-2 | Crystal Form ([2]; IPA): Form A | Crystal Form ([2]; MIBK): Form A | Crystal Form ([2]; MeOH:MeCN 9:1): Form A | Crystal Form ([2]; NMP:IPA 1:9): Form A | Crystal Form ([2]; THF:H2O (aw = 0.2)): Form A | Crystal Form ([2]; THF:H2O (aw = 0.4)): Form A | Crystal Form ([2]; THF:H2O (aw = 0.6)): Form A | Crystal Form ([2]; THF:H2O (aw = 0.8)): Form A | Crystal Form ([2]; Toluene): Form A | Effect of solution pH on solubility ([3]; citrate-buffered solutions and formulations, pH 3 to 6): maxima at both pH 3 and 6 | USP solubility definition ([3]; physiological pH range from 1.2 through 6.8): soluble | Solubility trend as a function of pH ([3]; simple buffered solutions, pH 3.0 to 6.0): highest at pH 3.0 | solubility ([3]; unbuffered water, ambient temperature, read-out: Solubility): 38.5 mg/mL | Crystal Form ([4]; polymer Brij, NMP:H2O 1:9, 40° C.): Amorphous | Crystal Form ([4]; polymer PVC, DMF:DCM 1:9, RT): Form A | Crystal Form ([4]; polymer PVP, DMA:H2O 1:9, 40° C.): Form A | Crystal Form ([4]; polymer PVP, NMP:H2O 1:9, 40° C.): Form A | Crystal Form ([5]; 1,4-dioxane:H2O 9:1): Form A* | Crystal Form ([5]; 2-MeTHF:DMF 9:1): Form A* | Crystal Form ([5]; DMSO:Toluene 1:9): Form A* | Crystal Form ([5]; NMP:nPA 1:9): Form A* | Crystal Form ([6]; DMSO:EtOAc 1:9, XRPD after 1 day): Form A | Crystal Form ([6]; THF, XRPD after 1 day): Form A | Crystal Form ([7]; solvent DMA, antisolvent CPME): Form A | Crystal Form ([7]; solvent DMA, antisolvent EtOAc): Form A | Crystal Form ([7]; solvent DMA, antisolvent Toluene): Form A | Crystal Form ([7]; solvent DMSO, antisolvent Benzene, *Loss of crystallinity): Form A* | Crystal Form ([7]; solvent NMP, antisolvent IPAc): Form A | Crystal Form [8]: FB-2 | Crystal Form ([9]; about 30 mg API, 1,4-Dioxane): Form A | Crystal Form ([9]; about 30 mg API, Acetone): Form A | Crystal Form ([9]; about 30 mg API, DCM): Form A | Crystal Form ([9]; about 30 mg API, EtOH): Form A | Crystal Form ([9]; about 30 mg API, THF): Form A | Degradation by reaction of counterion with the pyrimidine ring [10]: absence of this type of degradation | Crystal Form ([11]; solvent DCM, antisolvent Acetone): Form A | Crystal Form ([11]; solvent DCM, antisolvent MTBE): Form A | Crystal Form ([11]; solvent NMP, antisolvent MTBE): Form A
